Measurements as given in US11596639B2, “Substituted indole Mcl-1 inhibitors” (Vanderbilt University, priority 2016, dated 2023).

Legend:
Mcl-1 = Mcl-1 (Homo sapiens (Human), UniProt Q07820); test: TR-FRET binding assay, FITC-Bak peptide and MBP-tagged Mcl-1; conditions: read-out: Ki for Inhibition of Mcl-1 by TR-FRET assay
Procedure: Compounds are diluted in DMSO in a 16-point, semilog serial dilution scheme. […] The plate was mixed and incubated for 3 hours at room temperature. […] TR-FRET signal is plotted and IC50 and Ki values are calculated in the same manner as the fluorescence polarization anisotropy based competition assays.

[1] = test system: H929 human cancer cell lines; test: Cellular viability / proliferation (Cell TiterGlo, 72 h); type: cell-based; conditions: Homo sapiens, NCI-H929, 72 h, read-out: GI50 on cellular proliferation of H929 human cancer cell lines, H929 cells, 72 h, Cell TiterGlo, 10% FBS
How it was run: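 H929 cells plated at 1,000/well in 10% FBS medium received a 2-fold serial compound dilution (top 50 μM, DMSO <1%) 24 h later. After 72 h, viability was read by CellTiter-Glo luminescence. IC50 came from a four-parameter fit.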

Chain of Mcl-1 (Q07820 172-327): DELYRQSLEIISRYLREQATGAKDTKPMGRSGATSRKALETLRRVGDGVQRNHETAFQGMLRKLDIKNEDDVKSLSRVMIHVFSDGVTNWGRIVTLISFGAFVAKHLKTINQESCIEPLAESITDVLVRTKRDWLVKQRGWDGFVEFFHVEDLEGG

SMILES | Ki (Mcl-1) [nM] | GI50 [1] [nM]
COCCn1c(C(=O)O)cc2cc(C)cc(N3C[C@@H](C)n4c(c(CCCOc5cc(C)c(Cl)c(C)c5)c5ccc(Cl)c(-c6c(C)n[nH]c6C)c54)C3=O)c21 [Example 718, (R)-7-(7-chloro-10-(3-(4-chloro-3,5-dimethylphenoxy)propyl)-6-(3,5-dimethyl-1H-pyrazol-4-yl)-4-methyl-1-oxo-3,4-dihydropyrazino[1,2-a]indol-2(1H)-yl)-1-(2-methoxyethyl)-5-methyl-1H-indole-2-carboxylic acid] | < 0.2 | 410
Cc1cc(OCCCc2c3n(c4c(-c5c(C)nn(C)c5C)c(Cl)ccc24)[C@H](C)CN(c2cn(Cc4cccnc4)c4ccc(C(=O)O)cc24)C3=O)cc(C)c1Cl [Example 563, (R)-3-(7-chloro-10-(3-(4-chloro-3,5-dimethylphenoxy)propyl)-4-methyl-1-oxo-6-(1,3,5-trimethyl-1H-pyrazol-4-yl)-3,4-dihydropyrazino[1,2-a]indol-2(1H)-yl)-1-(pyridin-3-ylmethyl)-1H-indole-5-carboxylic acid] | < 0.2 | 1500
Cc1cc(N2C[C@@H](C)n3c(c(CCCOc4cc(C)c(Cl)c(C)c4)c4ccc(Cl)c(-c5c(C)nn(C)c5C)c43)C2=O)c2c(c1)cc(C(=O)O)n2Cc1cccc(N2CCOCC2)n1 [Example 499, (R)-7-(7-chloro-10-(3-(4-chloro-3,5-dimethylphenoxy)propyl)-4-methyl-1-oxo-6-(1,3,5-trimethyl-1H-pyrazol-4-yl)-3,4-dihydropyrazino[1,2-a]indol-2(1H)-yl)-5-methyl-1-((6-morpholinopyridin-2-yl)methyl)-1H-indole-2-carboxylic acid] | 0.21 | 740
COCCn1cc(N2C[C@@H](C)n3c(c(CCCOc4cc(C)c(Cl)c(C)c4)c4ccc(Cl)c(-c5c(C)nc(CN6CCN(C)CC6)nc5C)c43)C2=O)c2cc(C(=O)O)ccc21 [Example 559, (R)-3-(7-chloro-10-(3-(4-chloro-3,5-dimethylphenoxy)propyl)-6-(4,6-dimethyl-2-((4-methylpiperazin-1-yl)methyl)pyrimidin-5-yl)-4-methyl-1-oxo-3,4-dihydropyrazino[1,2-a]indol-2(1H)-yl)-1-(2-methoxyethyl)-1H-indole-5-carboxylic acid] | < 0.2 | 430
Cc1cc(OCCCc2c3n(c4c(-c5c(C)nn(C)c5C)c(Cl)ccc24)[C@H](C)CN(c2cc(CN4CCOCC4)cc4cc(C(=O)O)n(C)c24)C3=O)cc(C)c1Cl [Example 623, (R)-7-(7-chloro-10-(3-(4-chloro-3,5-dimethylphenoxy)propyl)-4-methyl-1-oxo-6-(1,3,5-trimethyl-1H-pyrazol-4-yl)-3,4-dihydropyrazino[1,2-a]indol-2(1H)-yl)-1-methyl-5-(morpholinomethyl)-1H-indole-2-carboxylic acid] | < 0.2 | < 200
CCN(C)c1cc(N2C[C@@H](C)n3c(c(CCCOc4cc(C)c(Cl)c(C)c4)c4ccc(Cl)c(-c5c(C)nn(C)c5C)c43)C2=O)c2c(c1)cc(C(=O)O)n2C [Example 680, (R)-7-(7-chloro-10-(3-(4-chloro-3,5-dimethylphenoxy)propyl)-4-methyl-1-oxo-6-(1,3,5-trimethyl-1H-pyrazol-4-yl)-3,4-dihydropyrazino[1,2-a]indol-2(1H)-yl)-5-(ethyl(methyl)amino)-1-methyl-1H-indole-2-carboxylic acid] | 0.33 | 610
Cc1cc(OCCCc2c3n(c4c(-c5c(C)nn(C)c5C)c(Cl)ccc24)[C@H](C)CN(c2cn(C)c4ccc(-n5nccn5)nc24)C3=O)cc(C)c1Cl [Example 664, (R)-7-Chloro-10-(3-(4-chloro-3,5-dimethylphenoxy)propyl)-4-methyl-2-(1-methyl-5-(2H-1,2,3-triazol-2-yl)-1H-pyrrolo[3,2-b]pyridin-3-yl)-6-(1,3,5-trimethyl-1H-pyrazol-4-yl)-3,4-dihydropyrazino[1,2-a]indol-1(2H)-one] | 0.64 | 580
Cc1cc(OCCCc2c3n(c4c(-c5c(C)nn(C)c5C)c(Cl)ccc24)[C@H](C)CN(c2cn(CC(=O)N4CCCC4)c4ccc(-c5ncn(C)n5)cc24)C3=O)cc(C)c1Cl [Example 527, (R)-7-Chloro-10-(3-(4-chloro-3,5-dimethylphenoxy)propyl)-4-methyl-2-(5-(1-methyl-1H-1,2,4-triazol-3-yl)-1-(2-oxo-2-(pyrrolidin-1-yl)ethyl)-1H-indol-3-yl)-6-(1,3,5-trimethyl-1H-pyrazol-4-yl)-3,4-dihydropyrazino[1,2-a]indol-1(2H)-one] | 0.36 | 260
Cc1ccnc(-n2cnc(-c3ccc4c(c3)c(N3C[C@@H](C)n5c(c(CCCOc6cc(C)c(Cl)c(C)c6)c6ccc(Cl)c(-c7c(C)nn(C)c7C)c65)C3=O)cn4C)n2)n1 [Example 670, (R)-7-Chloro-10-(3-(4-chloro-3,5-dimethylphenoxy)propyl)-4-methyl-2-(1-methyl-5-(1-(4-methylpyrimidin-2-yl)-1H-1,2,4-triazol-3-yl)-1H-indol-3-yl)-6-(1,3,5-trimethyl-1H-pyrazol-4-yl)-3,4-dihydropyrazino[1,2-a]indol-1(2H)-one] | < 0.2 | < 200
Cc1cc(OCCCc2c3n(c4c(-c5c(C)nn(C)c5C)c(Cl)ccc24)[C@H](C)CN(c2cn(CC(=O)N4CCN(C)CC4)c4ccc(-c5ncn(C)n5)cc24)C3=O)cc(C)c1Cl [Example 546, (R)-7-Chloro-10-(3-(4-chloro-3,5-dimethylphenoxy)propyl)-4-methyl-2-(5-(1-methyl-1H-1,2,4-triazol-3-yl)-1-(2-(4-methylpiperazin-1-yl)-2-oxoethyl)-1H-indol-3-yl)-6-(1,3,5-trimethyl-1H-pyrazol-4-yl)-3,4-dihydropyrazino[1,2-a]indol-1(2H)-one] | 0.38 | 420
COCCn1cc(N2C[C@@H](C)n3c(c(CCCOc4cc(C)c(Cl)c(C)c4)c4ccc(Cl)c(-c5c(C)nn(C)c5C)c43)C2=O)c2cc(-c3ncn(CC4COC4)n3)ccc21 [Example 581, (R)-7-Chloro-10-(3-(4-chloro-3,5-dimethylphenoxy)propyl)-2-(1-(2-methoxyethyl)-5-(1-(oxetan-3-ylmethyl)-1H-1,2,4-triazol-3-yl)-1H-indol-3-yl)-4-methyl-6-(1,3,5-trimethyl-1H-pyrazol-4-yl)-3,4-dihydropyrazino[1,2-a]indol-1(2H)-one] | 3.7 | 250
COc1ccc(N2C[C@@H](C)n3c(c(CCCOc4cc(C)c(Cl)c(C)c4)c4ccc(Cl)c(-c5c(C)ncnc5C)c43)C2=O)c2c1cc(C(=O)O)n2Cc1ccc(C)cn1 [Example 478, (R)-7-(7-Chloro-10-(3-(4-chloro-3,5-dimethylphenoxy)propyl)-6-(4,6-dimethylpyrimidin-5-yl)-4-methyl-1-oxo-3,4-dihydropyrazino[1,2-a]indol-2(1H)-yl)-4-methoxy-1-((5-methylpyridin-2-yl)methyl)-1H-indole-2-carboxylic acid] | 0.24 | 560
COCCOc1ccc(N2C[C@@H](C)n3c(c(CCCOc4cc(C)c(Cl)c(C)c4)c4ccc(Cl)c(-c5c(C)nn(C)c5C)c43)C2=O)c2c1cc(C(=O)O)n2Cc1cc(C)ccn1 [Example 632, (R)-7-(7-chloro-10-(3-(4-chloro-3,5-dimethylphenoxy)propyl)-4-methyl-1-oxo-6-(1,3,5-trimethyl-1H-pyrazol-4-yl)-3,4-dihydropyrazino[1,2-a]indol-2(1H)-yl)-4-(2-methoxyethoxy)-1-((4-methylpyridin-2-yl)methyl)-1H-indole-2-carboxylic acid] | < 0.2 | 220
Cc1cc(OCCCc2c3n(c4c(-c5c(C)ncnc5C)c(Cl)ccc24)[C@H](C)CN(c2cn(C)c4ccc(-c5ncn(C)n5)cc24)C3=O)cc(C)c1Cl [Example 574, (R)-7-Chloro-10-(3-(4-chloro-3,5-dimethylphenoxy)propyl)-6-(4,6-dimethylpyrimidin-5-yl)-4-methyl-2-(1-methyl-5-(1-methyl-1H-1,2,4-triazol-3-yl)-1H-indol-3-yl)-3,4-dihydropyrazino[1,2-a]indol-1(2H)-one] | 2.4 | 270
Cc1cc(OCCCc2c3n(c4c(-c5c(C)cc(OCCN6CCCC6)cc5C)c(Cl)ccc24)[C@H](C)CN(c2cn(C)c4ccc(C(=O)O)cc24)C3=O)cc(C)c1Cl [Example 508, (R)-3-(7-chloro-10-(3-(4-chloro-3,5-dimethylphenoxy)propyl)-6-(2,6-dimethyl-4-(2-(pyrrolidin-1-yl)ethoxy)phenyl)-4-methyl-1-oxo-3,4-dihydropyrazino[1,2-a]indol-2(1H)-yl)-1-methyl-1H-indole-5-carboxylic acid] | 2.4 | 450
Cc1cc(OCCCc2c3n(c4c(-c5c(C)nn(C)c5C)c(Cl)ccc24)[C@H](C)CN(c2cn(C)c4ccc(-n5ccnn5)cc24)C3=O)cc(C)c1Cl [Example 668, (R)-7-Chloro-10-(3-(4-chloro-3,5-dimethylphenoxy)propyl)-4-methyl-2-(1-methyl-5-(1H-1,2,3-triazol-1-yl)-1H-indol-3-yl)-6-(1,3,5-trimethyl-1H-pyrazol-4-yl)-3,4-dihydropyrazino[1,2-a]indol-1(2H)-one] | 7.6 | 1500
COc1ccc(N2C[C@@H](C)n3c(c(CCCOc4cc(C)c(Cl)c(C)c4)c4ccc(Cl)c(-c5c(C)n[nH]c5C)c43)C2=O)c2c1cc(C(=O)O)n2C [Example 727, (R)-7-(7-chloro-10-(3-(4-chloro-3,5-dimethylphenoxy)propyl)-6-(3,5-dimethyl-1H-pyrazol-4-yl)-4-methyl-1-oxo-3,4-dihydropyrazino[1,2-a]indol-2(1H)-yl)-4-methoxy-1-methyl-1H-indole-2-carboxylic acid] | < 0.2 | 500
